US10669272B2, “Substituted naphthyridinone compounds useful as T cell activators” (BRISTOL-MYERS SQUIBB COMPANY, priority 2018, dated 2020)
Like-named read-outs stand apart in the source and are kept apart here.

Assays:
Human venous whole blood = experiment: Human whole blood IFN-γ assay; type: cell-based; details: human whole blood, anti-CD3 plus anti-CD28, 24 hours, 3 μM reference compound = 100% activation, read-out: INFg Whole Blood Normalized Agonist EC50;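 further: blood from healthy donors exposed to compound for 1 h before stimulation with anti-CD3 and anti-CD28 at 1 µg/mL each, IFN-γ quantified in supernatant by AlphaLISA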
Description: Human Whole Blood IFN-γ Assay
Human venous whole blood (22.5 μL per well), obtained from healthy donors, was pre-treated with compounds for one hour at 37° C. in a humidified 95% air/5% CO2 incubator. The blood was stimulated with 2.5 μL anti-human CD3 and anti-CD28 mAb at a final concentration of 1 μg/mL each for 24 hours at 37° C. IFN-γ in the supernatants was measured using AlphLISA kit (Cat # AL217).

human DGKζ = target: T1, human DGKζ (Homo sapiens, UniProt Q13574); experiment: DGKζ LIPGLO assay (extruded liposome substrate), in vitro DGK inhibition; type: biochemical; details: DGKζ liposome (LIPGLO) assay; read-out: DGKz LIPGLO IC50
T1 construct: TVMV protease cleavage site (C); Hexa-His (C); made in house; host or cells: Sf9 insect cells (baculovirus, Bac-to-Bac)
T1 sequence (Q13574 with tags, fused parts or gaps isoform Q13574-4): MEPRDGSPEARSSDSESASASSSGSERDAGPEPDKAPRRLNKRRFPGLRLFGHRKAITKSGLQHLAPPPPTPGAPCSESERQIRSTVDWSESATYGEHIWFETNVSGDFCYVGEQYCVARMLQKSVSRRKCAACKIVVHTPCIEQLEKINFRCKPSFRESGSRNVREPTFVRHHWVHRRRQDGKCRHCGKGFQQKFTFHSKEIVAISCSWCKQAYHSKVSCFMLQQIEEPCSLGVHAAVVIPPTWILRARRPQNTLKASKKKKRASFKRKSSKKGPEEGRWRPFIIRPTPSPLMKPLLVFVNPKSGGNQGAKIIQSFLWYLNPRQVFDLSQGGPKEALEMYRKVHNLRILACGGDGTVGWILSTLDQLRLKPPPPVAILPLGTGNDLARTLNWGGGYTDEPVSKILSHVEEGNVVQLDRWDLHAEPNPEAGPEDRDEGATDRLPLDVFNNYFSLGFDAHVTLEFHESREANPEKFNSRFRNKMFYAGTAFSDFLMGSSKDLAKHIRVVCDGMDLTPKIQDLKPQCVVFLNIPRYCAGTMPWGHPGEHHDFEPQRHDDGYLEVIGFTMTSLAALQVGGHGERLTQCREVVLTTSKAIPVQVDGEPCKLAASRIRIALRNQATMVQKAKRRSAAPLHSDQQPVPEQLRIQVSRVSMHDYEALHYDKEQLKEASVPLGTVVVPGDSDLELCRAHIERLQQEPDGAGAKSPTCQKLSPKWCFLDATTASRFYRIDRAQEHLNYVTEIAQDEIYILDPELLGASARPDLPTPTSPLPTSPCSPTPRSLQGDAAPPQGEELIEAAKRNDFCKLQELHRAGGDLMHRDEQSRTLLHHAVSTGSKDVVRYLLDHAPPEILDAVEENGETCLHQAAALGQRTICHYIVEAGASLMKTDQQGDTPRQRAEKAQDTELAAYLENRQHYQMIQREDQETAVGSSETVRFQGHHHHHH

human DGKα = target: T2, human DGKα (Homo sapiens, UniProt P23743); experiment: DGKα LIPGLO assay (extruded liposome substrate), in vitro DGK inhibition; type: biochemical
T2 construct: TVMV protease cleavage site (C); Hexa-His (C); made in house; host or cells: Sf9 insect cells (baculovirus, Bac-to-Bac)
T2 sequence (P23743 with tags, fused parts or gaps): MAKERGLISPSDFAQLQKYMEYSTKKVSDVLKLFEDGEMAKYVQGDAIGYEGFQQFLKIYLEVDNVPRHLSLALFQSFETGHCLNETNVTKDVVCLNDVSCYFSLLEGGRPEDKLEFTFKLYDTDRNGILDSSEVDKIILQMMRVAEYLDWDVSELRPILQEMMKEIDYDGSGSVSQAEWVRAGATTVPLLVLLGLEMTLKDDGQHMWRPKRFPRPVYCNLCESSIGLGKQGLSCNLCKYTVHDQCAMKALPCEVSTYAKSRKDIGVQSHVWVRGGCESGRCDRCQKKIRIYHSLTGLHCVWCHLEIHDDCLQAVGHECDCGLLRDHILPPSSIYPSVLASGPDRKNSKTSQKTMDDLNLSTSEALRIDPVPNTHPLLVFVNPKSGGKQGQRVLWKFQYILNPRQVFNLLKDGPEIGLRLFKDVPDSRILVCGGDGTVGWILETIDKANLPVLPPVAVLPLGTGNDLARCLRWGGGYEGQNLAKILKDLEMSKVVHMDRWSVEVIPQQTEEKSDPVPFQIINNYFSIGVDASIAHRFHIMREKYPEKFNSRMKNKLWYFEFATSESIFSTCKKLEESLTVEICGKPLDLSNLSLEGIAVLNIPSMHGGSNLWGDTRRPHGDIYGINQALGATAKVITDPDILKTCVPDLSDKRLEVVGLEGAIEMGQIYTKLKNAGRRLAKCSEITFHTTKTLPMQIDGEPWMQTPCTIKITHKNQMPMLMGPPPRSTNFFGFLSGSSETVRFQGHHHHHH

[1] = DGKα liposome (LIPGLO) assay, read-out: DGKa LIPGLO IC50
[2] = DGKa LIPGLO IC50, DGKα liposome (LIPGLO) assay

SMILES	EC50 (Human venous whole blood) [nM]	IC50 (human DGKζ) [nM]	IC50 (human DGKα; [1]) [nM]	EC50 (Human venous whole blood; Homo sapiens, 24 h) [nM]	IC50 (human DGKα; [2]) [nM]
C[C@@H]1CN(c2cc(=O)n(C)c3ccc(C#N)nc23)[C@@H](C)CN1C(c1ccc(F)cc1)c1cc(C(C)(C)C)on1 (single isomer, unassigned) [Example 731]	950	330	8500		
C[C@@H]1CN(c2cc(=O)n(C)c3ccc(C#N)nc23)[C@@H](C)CN1C(c1ccc(F)cc1)c1cc(C(C)(C)C)on1 (single isomer, unassigned) [Example 732]	440	150	44		
Cc1cc(C(c2ccc(F)cc2)N2C[C@H](C)N(c3cc(=O)n(C)c4ccc(C#N)nc34)C[C@H]2C)no1 (single isomer, unassigned) [Example 733]	3500	1500	4100		
Cc1cc(C(c2ccc(F)cc2)N2C[C@H](C)N(c3cc(=O)n(C)c4ccc(C#N)nc34)C[C@H]2C)no1 (single isomer, unassigned) [Example 734]	1400	290	180		
C[C@@H]1CN(c2cc(=O)n(C)c3ccc(C#N)nc23)[C@@H](C)CN1C(c1ccc(F)cc1)c1nc(C2CCOCC2)no1 (single isomer, unassigned) [Example 740]	120	1300	610		
CC(C)c1noc(C(c2ccc(F)cc2)N2C[C@H](C)N(c3cc(=O)n(C)c4ccc(C#N)nc34)C[C@H]2C)n1 (single isomer, unassigned) [Example 747]	180	69	300		
CC(C)c1noc(C(c2ccc(F)cc2)N2C[C@H](C)N(c3cc(=O)n(C)c4ccc(C#N)nc34)C[C@H]2C)n1 (single isomer, unassigned) [Example 748]	410	220	54		
C[C@@H]1CN(c2cc(=O)n(C)c3ccc(C#N)nc23)[C@@H](C)CN1C(c1ccc(F)cc1)c1nc(C2CCN(C)CC2)no1 (single isomer, unassigned) [Example 752]	1700	4100	1000		
CCc1noc(C(c2ccc(F)cc2)N2C[C@H](C)N(c3cc(=O)n(C)c4ccc(C#N)nc34)C[C@H]2C)n1 (single isomer, unassigned) [Example 753]	640	160	400		
CCc1noc(C(c2ccc(F)cc2)N2C[C@H](C)N(c3cc(=O)n(C)c4ccc(C#N)nc34)C[C@H]2C)n1 (single isomer, unassigned) [Example 754]	91	230	58		
C[C@@H]1CN(c2cc(=O)n(C)c3ccc(C#N)nc23)[C@@H](C)CN1C(c1ccc(F)cc1)c1nc(C2CN(C(=O)OC(C)(C)C)C2)no1 (single isomer, unassigned) [Example 756]	6000	1900	190		
C[C@@H]1CN(c2cc(=O)n(C)c3ccc(C#N)nc23)[C@@H](C)CN1C(c1ccc(F)cc1)c1nc(C2CN(C(=O)OC(C)(C)C)C2)no1 (single isomer, unassigned) [Example 757]	1000	160	23		
C[C@@H]1CN(c2cc(=O)n(C)c3ccc(C#N)nc23)[C@@H](C)CN1C(c1ccc(OC(F)(F)F)cc1)c1nc(C2CC2)no1 (single isomer, unassigned) [Example 758]		75	860	300	
C[C@@H]1CN(c2cc(=O)n(C)c3ccc(C#N)nc23)[C@@H](C)CN1C(c1ccc(OC(F)(F)F)cc1)c1nc(C2CC2)no1 (single isomer, unassigned) [Example 759]	270	290	85		
C[C@@H]1CN(c2cc(=O)n(C)c3ccc(C#N)nc23)[C@@H](C)CN1C(c1ccc(F)cc1)c1nnc(C2CC2)o1 (single isomer, unassigned) [Example 763]		760	4500	1800	
C[C@@H]1CN(c2cc(=O)n(C)c3ccc(C#N)nc23)[C@@H](C)CN1C(c1ccc(F)cc1)c1nnc(C2CC2)[nH]1 (single isomer, unassigned) [Example 766]		9400	660	3500	
C[C@@H]1CN(c2cc(=O)n(C)c3ccc(C#N)nc23)[C@@H](C)CN1C(c1ccc(F)cc1)c1nnc(C2CC2)[nH]1 (single isomer, unassigned) [Example 767]	2300	6600	440		
C[C@@H]1CN(c2cc(=O)n(C)c3ccc(C#N)nc23)[C@@H](C)CN1C(c1ccc(F)cc1)c1nc(C2CC2)nn1C (single isomer, unassigned) [Example 768]	1800	3200	14000		
C[C@@H]1CN(c2cc(=O)n(C)c3ccc(C#N)nc23)[C@@H](C)CN1C(c1ccc(F)cc1)c1nc(C2CC2)nn1C (single isomer, unassigned) [Example 769]	460	200	16000		

SMILES	EC50 (Human venous whole blood) [nM]	IC50 (human DGKζ) [nM]	IC50 (human DGKα; [1]) [nM]	EC50 (Human venous whole blood; Homo sapiens, 24 h) [nM]	IC50 (human DGKα; [2]) [nM]
C[C@@H]1CN(c2cc(=O)n(C)c3ccc(C#N)nc23)[C@@H](C)CN1C(c1ccc(F)cc1)c1nnnn1C(C)(C)C (single isomer, unassigned) [Example 770]		1700	21000	8500	
C[C@@H]1CN(c2cc(=O)n(C)c3ccc(C#N)nc23)[C@@H](C)CN1C(c1ccc(F)cc1)c1nnnn1C(C)(C)C (single isomer, unassigned) [Example 771]	10000	8500	6300		
CC(C)c1nnc(C(c2ccc(F)cc2)N2C[C@H](C)N(c3cc(=O)n(C)c4ccc(C#N)nc34)C[C@H]2C)s1 (single isomer, unassigned) [Example 772]	1400	27	4.7		
CC(C)c1nnc(C(c2ccc(F)cc2)N2C[C@H](C)N(c3cc(=O)n(C)c4ccc(C#N)nc34)C[C@H]2C)s1 (single isomer, unassigned) [Example 773]	7900	700	760		
C[C@@H]1CN(c2cc(=O)n(C)c3ccc(C#N)nc23)[C@@H](C)CN1C(c1ccc(F)cc1)c1nc(C2CC2)co1 (single isomer, unassigned) [Example 777]		750	68	770	
C[C@@H]1CN(c2cc(=O)n(C)c3ccc(C#N)nc23)[C@@H](C)CN1C(c1ccc(F)cc1)c1nc(C(C)(C)C)co1 (single isomer, unassigned) [Example 779]		12	110	10	
CC(c1c(F)cccc1F)N1C[C@H](C)N(c2c(C#N)c(=O)n(C)c3ccc(C#N)nc23)C[C@H]1C (single isomer, unassigned) [Example 780]		31000	1500	14000	
CC(c1c(F)cccc1F)N1C[C@H](C)N(c2c(C#N)c(=O)n(C)c3ccc(C#N)nc23)C[C@H]1C (single isomer, unassigned) [Example 781]		120	74	830	
CC(c1ccc(F)cc1)N1C[C@H](C)N(c2c(C#N)c(=O)n(C)c3ccc(C#N)nc23)C[C@H]1C (single isomer, unassigned) [Example 782]		3400	180	1100	
Cc1ccc(C(C)N2C[C@H](C)N(c3c(C#N)c(=O)n(C)c4ccc(C#N)nc34)C[C@H]2C)cc1 (single isomer, unassigned) [Example 784]	2000	2600	1200		
Cc1ccc(C(C)N2C[C@H](C)N(c3c(C#N)c(=O)n(C)c4ccc(C#N)nc34)C[C@H]2C)cc1 (single isomer, unassigned) [Example 785]	6400	> 250000	690		
CC(c1ccc(Cl)cc1)N1C[C@H](C)N(c2c(C#N)c(=O)n(C)c3ccc(C#N)nc23)C[C@H]1C (single isomer, unassigned) [Example 791]	1300	5700			1900
CC(c1ccc(Cl)cc1)N1C[C@H](C)N(c2c(C#N)c(=O)n(C)c3ccc(C#N)nc23)C[C@H]1C (single isomer, unassigned) [Example 792]	21000	83000			1500
COC(=O)c1cccc(C(C)N2C[C@H](C)N(c3c(C#N)c(=O)n(C)c4ccc(C#N)nc34)C[C@H]2C)c1 (single isomer, unassigned) [Example 795]		160000	13000	20000	
COC(=O)c1cccc(C(C)N2C[C@H](C)N(c3c(C#N)c(=O)n(C)c4ccc(C#N)nc34)C[C@H]2C)c1 (single isomer, unassigned) [Example 796]	20000	2200	240000		
CC(c1ccccc1F)N1C[C@H](C)N(c2c(C#N)c(=O)n(C)c3ccc(C#N)nc23)C[C@H]1C (single isomer, unassigned) [Example 797]	1800	8600	1800		
CC(c1ccccc1F)N1C[C@H](C)N(c2c(C#N)c(=O)n(C)c3ccc(C#N)nc23)C[C@H]1C (single isomer, unassigned) [Example 798]	20000	> 250000	9800		
COc1ccc(C(C)N2C[C@H](C)N(c3c(C#N)c(=O)n(C)c4ccc(C#N)nc34)C[C@H]2C)nc1 (single isomer, unassigned) [Example 799]	20000	9900	860		
COc1ccc(C(C)N2C[C@H](C)N(c3c(C#N)c(=O)n(C)c4ccc(C#N)nc34)C[C@H]2C)nc1 (single isomer, unassigned) [Example 800]	5900	330	380		
